Data published in ChEMBL document CHEMBL5126557, “Design, synthesis, and bio-evaluation of novel triterpenoid derivatives as anti-HIV-1 compounds” (Bioorg Med Chem Lett, 2022).

Columns and labels:
[1] = system: Human immunodeficiency virus 1; experiment: Antiviral activity against HIV-1 NL4-3(X4) infected in human TZM-bl cells assessed as reduction in viral replication; format: functional, organism-based; details: Human immunodeficiency virus 1, NL4-3(X4)
[2] = Cytotoxicity against human TZM-bl cells assessed as reduction in cell viability by CellTitre-Glo assay; format: toxicity, cell-based
[3] = Selectivity index, ratio of CC50 for human TZM-bl cells to IC50 for IC50 for antiviral activity against HIV-1 89.6 infected in human TZM-bl cells; format: toxicity, cell-based; details: read-out: Ratio CC50/IC50
[4] = system: Human immunodeficiency virus 1; experiment: Antiviral activity against HIV-1 YU2 […] infected in human TZM-bl cells assessed as reduction in viral replication; format: functional, organism-based; details: Human immunodeficiency virus 1, YU2[…]
[5] = system: Human immunodeficiency virus 1; experiment: Antiviral activity against HIV-1 89.6 infected in human TZM-bl cells assessed as reduction in viral replication; format: functional, organism-based; details: Human immunodeficiency virus 1, 89.6, TZM-bl
[6] = system: Human immunodeficiency virus 1; experiment: Synergistic antiviral activity against HIV-1 89.6 infected in human TZM-bl cells assessed as compound dose reduction index at 45:1 compound and 447-52D antibody ratio; format: functional
[7] = system: Human immunodeficiency virus 1; experiment: Synergistic antiviral activity against HIV-1 89.6 infected in human TZM-bl cells assessed as antibody dose reduction index at 45:1 compound and 2F5 antibody ratio; format: functional
[8] = system: Human immunodeficiency virus 1; experiment: Synergistic antiviral activity against HIV-1 89.6 infected in human TZM-bl cells assessed as compound dose reduction index at 450:1 compound and b12 antibody ratio; format: functional
[9] = system: Human immunodeficiency virus 1; experiment: Synergistic antiviral activity against HIV-1 89.6 infected in human TZM-bl cells assessed as antibody dose reduction index at 45:1 compound and KD-247 antibody ratio; format: functional
[10] = system: Human immunodeficiency virus 1; experiment: Synergistic antiviral activity against HIV-1 89.6 infected in human TZM-bl cells assessed as compound dose reduction index at 45:1 compound and 2F5 antibody ratio; format: functional
[11] = system: Human immunodeficiency virus 1; experiment: Synergistic antiviral activity against HIV-1 89.6 infected in human TZM-bl cells assessed as combination index at 450:1 compound and b12 antibody ratio; format: functional
[12] = system: Human immunodeficiency virus 1; experiment: Synergistic antiviral activity against HIV-1 89.6 infected in human TZM-bl cells assessed as combination index at 45:1 compound and 2F5 antibody ratio; format: functional
[13] = system: Human immunodeficiency virus 1; experiment: Synergistic antiviral activity against HIV-1 89.6 infected in human TZM-bl cells assessed as antibody dose reduction index at 45:1 compound and 4E10 antibody ratio; format: functional
[14] = system: Human immunodeficiency virus 1; experiment: Synergistic antiviral activity against HIV-1 89.6 infected in human TZM-bl cells assessed as compound dose reduction index at 45:1 compound and 2G12 antibody ratio; format: functional
[15] = system: Human immunodeficiency virus 1; experiment: Synergistic antiviral activity against HIV-1 89.6 infected in human TZM-bl cells assessed as antibody dose reduction index at 45:1 compound and 447-52D antibody ratio; format: functional
[16] = system: Human immunodeficiency virus 1; experiment: Synergistic antiviral activity against HIV-1 89.6 infected in human TZM-bl cells assessed as compound dose reduction index at 45:1 compound and 4E10 antibody ratio; format: functional
[17] = system: Human immunodeficiency virus 1; experiment: Synergistic antiviral activity against HIV-1 89.6 infected in human TZM-bl cells assessed as combination index at 45:1 compound and 447-52D antibody ratio; format: functional
[18] = system: Human immunodeficiency virus 1; experiment: Synergistic antiviral activity against HIV-1 89.6 infected in human TZM-bl cells assessed as combination index at 45:1 compound and 4E10 antibody ratio; format: functional
[19] = system: Human immunodeficiency virus 1; experiment: Synergistic antiviral activity against HIV-1 89.6 infected in human TZM-bl cells assessed as compound dose reduction index at 45:1 compound and KD-247 antibody ratio; format: functional
[20] = system: Human immunodeficiency virus 1; experiment: Synergistic antiviral activity against HIV-1 89.6 infected in human TZM-bl cells assessed as combination index at 45:1 compound and 2G12 antibody ratio; format: functional
[21] = system: Human immunodeficiency virus 1; experiment: Synergistic antiviral activity against HIV-1 89.6 infected in human TZM-bl cells assessed as combination index at 45:1 compound and KD-247 antibody ratio; format: functional
[22] = system: Human immunodeficiency virus 1; experiment: Synergistic antiviral activity against HIV-1 89.6 infected in human TZM-bl cells assessed as antibody dose reduction index at 450:1 compound and b12 antibody ratio; format: functional
[23] = system: Human immunodeficiency virus 1; experiment: Synergistic antiviral activity against HIV-1 89.6 infected in human TZM-bl cells assessed as antibody dose reduction index at 45:1 compound and 2G12 antibody ratio; format: functional

IC50 [1]	IC50 [4]	IC50 [5]	SMILES	CC50 [2]	selectivity ratio [3]	also measured
0.5 µM	16 µM	0.39 µM	CC(C)C[C@H](NC(=O)CCCCCCCNC(=O)[C@]12CCC(C)(C)C[C@H]1[C@H]1C(=O)C[C@@H]3[C@@]4(C)CC[C@H](O)C(C)(C)[C@@H]4CC[C@@]3(C)[C@]1(C)CC2)[C@@H](O)CC(=O)O	128 µM	328	–
3.2 µM	42 µM	1 µM	CC(C)C[C@H](NC(=O)CCCCCCCNC(=O)[C@]12CCC(C)(C)C[C@H]1C1=CC[C@@H]3[C@@]4(C)CC[C@H](O)C(C)(C)[C@@H]4CC[C@@]3(C)[C@]1(C)CC2)[C@H](O)CC(=O)O	26 µM	26	–
> 100 µM	> 100 µM	> 100 µM	CC(C)C[C@H](NC(=O)CCCCCCCNC(=O)[C@@]1(C)CC[C@]2(C)CC[C@]3(C)C(=CC(=O)[C@@H]4[C@@]5(C)CC[C@H](O)C(C)(C)[C@@H]5CC[C@]43C)[C@@H]2C1)[C@@H](O)CC(=O)O	> 300 µM	–	–
> 100 µM	> 100 µM	> 100 µM	CC(C)C[C@H](NC(=O)CCCCCCCNC(=O)[C@@]1(C)CC[C@]2(C)CC[C@]3(C)C(=CC(=O)[C@@H]4[C@@]5(C)CC[C@H](O)C(C)(C)[C@@H]5CC[C@]43C)[C@@H]2C1)[C@H](O)CC(=O)O	> 300 µM	–	–
1.7 µM	25 µM	0.79 µM	CC(C)C[C@H](NC(=O)CCCCCCCNC(=O)[C@]12CCC(C)(C)C[C@H]1C1=CC[C@@H]3[C@@]4(C)CC[C@H](O)C(C)(C)[C@@H]4CC[C@@]3(C)[C@]1(C)CC2)[C@@H](O)CC(=O)O	78 µM	99	Activity_index [6]: 3.8; Activity_index [7]: 2.7; Activity_index [8]: 3.2; Activity_index [9]: 2.9; Activity_index [10]: 4.3; CI [11]: 0.68; CI [12]: 0.69; Activity_index [13]: 5.5; Activity_index [14]: 4.9; Activity_index [15]: 3.9; Activity_index [16]: 2.9; CI [17]: 0.59; CI [18]: 0.59; Activity_index [19]: 3.3; CI [20]: 0.59; CI [21]: 0.75; Activity_index [22]: 3.6; Activity_index [23]: 3.1

Second part, the compound before the results:

SMILES	IC50 [1]	IC50 [4]	IC50 [5]	CC50 [2]	selectivity ratio [3]	also measured
C=C(C)[C@@H]1CC[C@]2(C(=O)NCCCCCCCC(=O)N[C@@H](CC(C)C)[C@H](O)CC(=O)O)CC[C@]3(C)[C@H](CC[C@@H]4[C@@]5(C)CC[C@H](O)C(C)(C)[C@@H]5CC[C@]43C)[C@@H]12	0.32 µM	5.8 µM	0.2 µM	8.9 µM	45	–
CC(C)C[C@H](NC(=O)CCCCCCCNC(=O)[C@]12CC[C@@H](C)[C@H](C)[C@H]1C1=CC[C@@H]3[C@@]4(C)CC[C@H](O)C(C)(C)[C@@H]4CC[C@@]3(C)[C@]1(C)CC2)[C@@H](O)CC(=O)O	3.7 µM	43 µM	3.5 µM	95 µM	27	–
CC(C)C[C@H](NC(=O)CCCCCCCNC(=O)[C@]12CC[C@@H](C)[C@H](C)[C@H]1C1=CC[C@@H]3[C@@]4(C)CC[C@H](O)C(C)(C)[C@@H]4CC[C@@]3(C)[C@]1(C)CC2)[C@H](O)CC(=O)O	3.9 µM	40 µM	1.1 µM	71 µM	65	–
C=C(C)[C@@H]1CC[C@]2(C(=O)NCCCCCCCC(=O)N[C@@H](CC(C)C)[C@@H](O)CC(=O)O)CC[C@]3(C)[C@H](CC[C@@H]4[C@@]5(C)CC[C@H](O)C(C)(C)[C@@H]5CC[C@]43C)[C@@H]12	0.27 µM	80 µM	0.17 µM	17 µM	100	–
